Experimental data: PubChem BioAssay AID179 (DTP/NCI, 2004)
Several values for one entry are separate records, joined by “and”; a condition that tells them apart may be missing. Equal entries are not always repeated. Activity calls are given as the source filed them.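 The calls were made as follows: active = compounds giving half or more protection of infected cells from virus-caused growth loss, again on retest; inactive = the rest.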

System: CEM cells HIV-1 protection, formazan growth assay
Test: NCI AIDS Antiviral Assay
Conditions: for IC50: measured here: growth of uninfected CEM cells
Procedure, shortened: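 Human CEM cells, uninfected and HIV-1-infected, received five drug concentrations, and growth was read by soluble formazan assay. Compounds giving at least 50% protection were retested; reproducible 100% protection defined confirmed active.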

CN(C)/N=C(/CC(O)(C(F)(F)F)C(F)(F)F)c1ccc([N+](=O)[O-])cc1
EC50: > 200 µM
IC50: 31.6 µM

O=C1C(C2CCCCC2)=C2OCC3COC2(O3)c2ccccc21 (stereo not drawn)
EC50: > 74.1 µM
IC50: 30.2 µM

O=C(CCC(=O)Nc1ccc(C2=NCCN2)cc1)Nc1ccc(C2=NCCN2)cc1
EC50: 95.5 µM
IC50: 141 µM

CC(=O)c1c2c(cc3c1CC1(Cc4cc5c(cc4C1)CCCC5)C3)CCCC2
EC50: > 200 µM
IC50: 34.7 µM

COc1ccc(/C=C2\N=C3N(Cc4ccccc4)C=C(N)N3C2=O)cc1
EC50: > 200 µM
IC50: > 200 µM

O=C(O)CCCCCCC(=O)O
EC50: > 1450 µM
IC50: > 1450 µM

CN1CC2=C(NC(=S)NC2c2ccccc2Cl)/C(=C/c2ccccc2Cl)C1 (stereo not drawn)
EC50: > 200 µM
IC50: 13.2 µM

O=c1[nH]c(=O)n(COCc2ccccc2)c2ccccc12
EC50: > 200 µM
IC50: 174 µM

ClC(Cl)(Cl)C1OCOC(C(Cl)(Cl)Cl)OCO1 (stereo not drawn)
EC50: > 200 µM
IC50: > 200 µM

COc1ccc(/C(=N/O)c2ccccc2-c2nc3ccccc3c(=O)n2-c2ccc(S(=O)(=O)Nc3ncccn3)cc2)cc1C
EC50: > 200 µM
IC50: 49 µM

CCOC(=O)C1C2CCC(C2=C(c2ccccc2)c2ccccc2)C1C(=O)O (stereo not drawn)
EC50: > 234 µM
IC50: 102 µM

O=C(CCc1ccccc1)On1nnc2ccccc2c1=O
outcome: inactive

CN1C(=O)C23CCCN2C(=O)C1(C)SC(=N)S3 (stereo not drawn)
EC50: > 200 µM
IC50: > 200 µM

CC1NOC(=O)C1N=Nc1ccccc1Cl (stereo not drawn)
EC50: > 151 µM
IC50: 70.8 µM

Cc1csc2n/c(=N/[N+](=O)[O-])sn12
EC50: > 138 µM
IC50: 66.1 µM

N=C1CSC2=NC3=C(CCC/C3=C\c3ccccc3)C(c3ccccc3)N12 (stereo not drawn)
EC50: > 18.6 µM
IC50: > 18.6 µM

O=C(NCc1ccccc1)/C(=C/c1ccc2c(c1)OCO2)NC(=O)c1ccccc1
EC50: > 200 µM
IC50: > 200 µM

COc1ccc([N-]/C(=N\n2c(=O)c(C)nn(C)c2=S)N(c2ccc(OC)cc2)c2nn3c(=O)c(C)n[n+](C)c3s2)cc1
outcome: inactive

CSc1nc(Cl)c2c(n1)Sc1nc3cc4c(cc3n1C2O)OCCO4 (stereo not drawn)
EC50: > 0.2 µM
IC50: 0.0794 µM

CC(=O)CSc1sc(C(C)=O)c(N)c1C#N
EC50: > 200 µM
IC50: > 200 µM

Cc1cccc(N=Nc2c(C)nn(C(=O)c3ccc(O)cc3)c2C)c1
outcome: inactive

[N-]=[N+]=CC(=O)C1CCCN1C(=O)c1ccccc1 (stereo not drawn)
EC50: > 200 µM
IC50: > 200 µM

COc1ccc2c(c1)CC1c3[nH]c4ccccc4c3CCN1C2 (stereo not drawn)
EC50: 56.2 µM and > 102 µM
IC50: 102 µM and 46.8 µM

Clc1ccc(CNCCCNCc2ccc(Cl)c(Cl)c2)cc1Cl
EC50: > 200 µM
IC50: 15.8 µM

O=C(O)c1ccc(NC(NC(=O)C(C(F)(F)F)C(F)(F)F)(C(F)(F)F)C(F)(F)F)cc1
EC50: > 200 µM
IC50: > 200 µM

N/C(=N\C(=S)N1CCCCC1)N1CCCCC1
outcome: inactive

C=CCNC(=S)/N=C\c1c(C)[nH]n(-c2ccccc2)c1=O
EC50: > 100 µM
IC50: 95.5 µM

Cc1ccc(/C=C2\Cc3cc(C)c(C)cc3C2=O)c(C(=O)O)c1
EC50: > 200 µM
IC50: 38.9 µM

O=C(O)c1cc(N=Nc2ccc(N=Nc3ccc(S(=O)(=O)O)cc3)cc2)ccc1O
outcome: inactive

CSC1C=C(C(C)C)CCC1(C)SC (stereo not drawn)
EC50: > 200 µM
IC50: 39.8 µM

CC(C)=CCNc1nc(Cl)nc2nc[nH]c12
EC50: > 200 µM
IC50: 57.5 µM

CC(=O)NC1C(OCc2ccccc2)OC(CO)C(O)C1OCC(=O)N1CCCC1C(=O)N[C@@H](CCC(=O)NCCNCCNc1c2ccccc2nc2cccc([N+](=O)[O-])c12)C(N)=O (stereo partly drawn)
EC50: > 100 µM
IC50: 1.51 µM

COc1cc(/C=N/c2nncs2)ccc1O
EC50: > 79.4 µM
IC50: > 79.4 µM

CC12c3c4cccc3Oc3cc(N)cc(c31)Oc1cc(N)cc(c12)O4
EC50: > 200 µM
IC50: 2.88 µM

C/C=C(\CCCCN1C(=O)CCC1O)[Si](C)(C)C (stereo not drawn)
outcome: inactive

COC1=NCN=C2SC=C(N)N=C12
EC50: > 1070 µM
IC50: 562 µM

N#Cc1cc2c(n(C3OC(CO)C(O)C(O)C3O)c1=S)CCCCC2 (stereo not drawn)
EC50: > 200 µM
IC50: > 200 µM

Cc1ccc(C)c(C(=O)c2ccccc2)c1C(=O)O
EC50: > 200 µM
IC50: > 200 µM

O=S1(=O)CC#CC[C@@H](CO)[C@@H](CO)CC#CC1
outcome: inactive

CCOC(=O)C[P+](c1cccc(OC)c1)(c1cccc(OC)c1)c1cccc(OC)c1
EC50: > 200 µM
IC50: 46.8 µM

O=C(O)CCC(NC(=O)c1ccccc1)C(=O)O (stereo not drawn)
outcome: inactive

Cc1ccc(C2CC(=O)CC(c3ccc(C)cc3)C23C(=O)NC(=O)NC3=O)cc1 (stereo not drawn)
EC50: > 100 µM
IC50: 64.6 µM

CS(=O)(=O)O/N=c1/cc(-c2ccccc2)oc2ccccc12
EC50: > 200 µM
IC50: > 200 µM

CNC(=S)OCCC(C)CCCC(C)C (stereo not drawn)
outcome: inactive

COc1cc(C(C)O)c[n+](Cc2ccccc2)c1 (stereo not drawn)
EC50: > 302 µM
IC50: > 302 µM

CC(C)(N=NC(C)(C)C(=O)NCCO)C(=O)NCCO
EC50: > 200 µM
IC50: > 200 µM
